# Results taken from ChEMBL document CHEMBL4680293, “Tubulin inhibitory activity of a novel colchicine-binding compounds based on a dinaphthospiropyranran scaffold” (Bioorg Med Chem, 2021).
# Active and inactive are the calls of the source. The rule behind the calls is not given here.
# Assays:
# NCI/ADR-RES = test: Anti-cancer activity against human NCI/ADR-RES cells assessed as cell growth inhibition measured after 48 hrs by SRB method; format: functional, cell-based
# SK-MEL-5 = test: Anti-cancer activity against human SK-MEL-5 cells assessed as cell growth inhibition measured after 48 hrs by SRB method; format: functional, cell-based
# HOP-92 = test: Anti-cancer activity against human HOP-92 cells assessed as cell growth inhibition measured after 48 hrs by SRB method; format: functional, cell-based
# SF-539 = test: Anti-cancer activity against human SF-539 cells assessed as cell growth inhibition measured after 48 hrs by SRB method; format: functional, cell-based
# Tubulin (Homo sapiens) = Tubulin (Homo sapiens) (UniProt P68371+Q9H4B7+P0DPH7+P68366+Q13509+Q71U36+P04350+Q3ZCM7+P07437+P68363+Q9BQE3+Q6PEY2+Q13885+Q9BVA1+Q9BUF5); test: Disruption of tubulin in human HCT-116 cells assessed as induction of tubulin reorganization at 20 uM after 48 hrs by DAPI staining based immunofluorescence method; format: cell-based
# NCI-H322M = test: Anti-cancer activity against human NCI-H322M cells assessed as cell growth inhibition measured after 48 hrs by SRB method; format: functional, cell-based
# EKVX = test: Anti-cancer activity against human EKVX cells assessed as cell growth inhibition measured after 48 hrs by SRB method; format: functional, cell-based
# [1] = Anti-cancer activity against human central nervous system cells assessed as cell growth inhibition measured after 48 hrs by SRB method; format: functional; conditions: CNS cell
# [2] = Anti-cancer activity against human breast cancer cells assessed as cell growth inhibition measured after 48 hrs by SRB method; format: functional; conditions: Breast cancer cell line
# MDA-MB-231 = test: Anti-cancer activity against human MDA-MB-231 cells assessed as cell growth inhibition measured after 48 hrs by SRB method; format: functional, cell-based
# [3] = Anti-cancer activity against human melanoma cells assessed as cell growth inhibition measured after 48 hrs by SRB method; format: functional; conditions: Melanoma cell line
# HCT-15 = test: Anti-cancer activity against human HCT-15 cells assessed as cell growth inhibition measured after 48 hrs by SRB method; format: functional, cell-based
# A549 = test: Anti-cancer activity against human A549/ATCC cells assessed as cell growth inhibition measured after 48 hrs by SRB method; format: functional, cell-based
# Malme-3M = test: Anti-cancer activity against human Malme-3M cells assessed as cell growth inhibition measured after 48 hrs by SRB method; format: functional, cell-based
structure (smiles),measurement,setting,value
C1=C2CNCC3=Cc4c(ccc5ccccc45)OC23Oc2ccc3ccccc3c21,IC50,NCI/ADR-RES; 48 h,3.8 µM
same,GI50,NCI/ADR-RES; time 48 hrs,2.09 µM
same,TGI,NCI/ADR-RES; time 48 hrs,6.03 µM
same,CC50,"NCI/ADR-RES; time 48 hrs, read-out: LC50 (the source's name)",4 µM
same,IC50,"SK-MEL-5; SK-MEL-5, 48 h",6.03 µM
same,GI50,"SK-MEL-5; SK-MEL-5, time 48 hrs",3.16 µM
same,TGI,"SK-MEL-5; SK-MEL-5, time 48 hrs",13.8 µM
same,CC50,"SK-MEL-5; SK-MEL-5, time 48 hrs, read-out: LC50 (the source's name)",4.33 µM
same,IC50,"HOP-92; HOP-92, 48 h",26.9 µM
same,GI50,"HOP-92; HOP-92, time 48 hrs",2.88 µM
same,TGI,"HOP-92; HOP-92, time 48 hrs",17 µM
same,IC50,"SF-539; SF-539, 48 h",6.03 µM
same,GI50,"SF-539; SF-539, time 48 hrs",3.39 µM
same,LC50 (concentration killing 50% of cells),"SF-539; SF-539, time 48 hrs",4 µM
same,TGI,"SF-539; SF-539, time 48 hrs",14.8 µM
same,Activity,Tubulin (Homo sapiens),Active
same,IC50,NCI-H322M; 48 h,27.5 µM
same,GI50,NCI-H322M; time 48 hrs,10.7 µM
same,TGI,NCI-H322M; time 48 hrs,33.1 µM
same,IC50,EKVX; 48 h,20 µM
same,GI50,EKVX; time 48 hrs,5.75 µM
same,TGI,EKVX; time 48 hrs,33.9 µM
same,GI50,[1],3.8 µM
same,GI50,[2],4.68 µM
same,IC50,"MDA-MB-231; MDA-MB-231, 48 h",22.9 µM
same,GI50,"MDA-MB-231; MDA-MB-231, time 48 hrs",9.33 µM
same,TGI,"MDA-MB-231; MDA-MB-231, time 48 hrs",26.9 µM
same,CC50,"MDA-MB-231; MDA-MB-231, time 48 hrs, read-out: LC50 (the source's name)",4.12 µM
same,GI50,[3],4.47 µM
same,IC50,"HCT-15; HCT-15, 48 h",5.5 µM
same,GI50,"HCT-15; HCT-15, time 48 hrs",3.89 µM
same,LC50,"HCT-15; HCT-15, time 48 hrs",4 µM
same,TGI,"HCT-15; HCT-15, time 48 hrs",22.4 µM
same,IC50,"A549; A549, 48 h",6.92 µM
same,GI50,"A549; A549, time 48 hrs",4.47 µM
same,TGI,"A549; A549, time 48 hrs",20.4 µM
same,CC50,"A549; A549, time 48 hrs, read-out: LC50 (the source's name)",4.14 µM
same,IC50,Malme-3M; 48 h,36.3 µM
same,GI50,Malme-3M; time 48 hrs,12.6 µM
same,LC50 (50% lethal concentration),Malme-3M; time 48 hrs,4 µM
same,TGI,Malme-3M; time 48 hrs,38 µM
